Reference: patent US20050064519A1, “Methods of using GST-Omega-2” (Pfizer Inc., priority 2003, published 2005)
One block for each molecule: values may come before it.

What was measured:
[1] = biological target: T1, flag-tagged human GST-Omega-2 (Homo sapiens, UniProt Q9H4Y5); experiment: Competitive binding assay: incorporation of [14C]Compound 2 into GST-Omega-2 in infected SF9 cells; set-up: expressed in transfected cells; host or cells: SF9 insect cells, baculovirus infection (pFASTBAC-flag shuttle vector); details: 30 min preincubation, then 2 µM [14C]Compound 2 for 60 min, relative to control cultures
T1 sequence (Q9H4Y5 1-242 limits assumed): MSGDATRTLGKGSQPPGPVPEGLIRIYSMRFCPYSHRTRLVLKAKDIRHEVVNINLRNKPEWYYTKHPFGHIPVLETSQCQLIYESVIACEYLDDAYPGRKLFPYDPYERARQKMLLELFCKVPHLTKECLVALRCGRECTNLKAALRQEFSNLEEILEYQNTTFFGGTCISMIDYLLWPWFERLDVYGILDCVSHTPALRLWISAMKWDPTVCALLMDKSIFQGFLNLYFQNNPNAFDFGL
Procedure: Insect cells (SF9) were infected with a baculovirus construct encoding flag-tagged human GST-Omega-2 (see Example 5) and seeded into individual 10 cm dishes. After 48 hr of infection, media were removed and replaced with fresh medium (6 ml) containing 100, 200 or 400 μM Compound 4, 10 μM Compound 2, or neither compound. The cultures were incubated for 30 min at room temperature after which 2 µM [^14C]Compound 2 was introduced and the cultures were incubated for 60 min at room temperature. The cells then were harvested by centrifugation, washed with PBS to remove unbound radioactivity, and solubilized by detergent extraction. GST-Omega-2 was recovered by immunoprecipitation with anti-Flag M2 antibody, and the resulting immunoprecipitates were fractionated by SDS/PAGE; the dried gel subsequently was analyzed by phosphorimager analysis.

[2] = biological target: T1, flag-tagged human GST-Omega-2; experiment: Diarylsulfonylurea (Compound 2) affinity column binding of GST-Omega-2 from HEK293 lysate, Western detection; set-up: expressed in transfected cells; details: 5 mM in buffer; Western blot of column fractions
Source text: Human embryonic kidney (HEK293) cells were transfected with a pcDNA3.1 mammalian expression vector encoding FLAG-tagged human GST-Omega-2. Stable transfectants isolated by growth in the presence of G418 were subcloned and a high expressing colony was identified. Four confluent 10 cm dishes of this cell line were established after which the cells were harvested and then disrupted by nitrogen cavitation. The resulting cell lysate was clarified by centrifugation and the supernatant fraction was recovered and applied to an affinity column (1 ml) composed of 1-(1,2,3,5,6,7-Hexahydro-s-indacen-4-yl)-3-[2-fluoro-5-oxiranylbenzenesulfonyl]-urea (hereinafter referred to as Compound 2 as per U.S. Patent Publication 2002-0034764) attached to Thiolpropyl-Sepharose. Compound 2 is a diarylsulfonylurea that contains an epoxide group which can react to form a covalent linkage with Thiolpropyl-Sepharose. In some cases, the cell extract was applied to the column in a buffer containing 5 mM of a competitive inhibitor, 1-(1,2,3,5,6,7-Hexahydro-s-indacen-4-yl)-3-[4-(1-hydroxy-1-methylethyl)-furan-2-sulfonyl]-urea (hereinafter referred to as Compound 4 as per the '372 application). The column was washed with buffer then eluted with a denaturing detergent, sodium dodecyl sulfate (SDS). Individual 1 ml fractions were collected and aliquots of each were fractionated by SDS/PAGE. […]

[3] = biological target: T1, flag-tagged human GST-Omega-2; experiment: Labeling of GST-Omega-2 by [14C]Compound 2 in infected SF9 cells, SDS/PAGE autoradiography; assay type: binding; set-up: expressed in transfected cells; host or cells: SF9 insect cells, baculovirus infection (pFASTBAC-flag shuttle vector); details: 60 min
Procedure: (§1) Insect cells (SF9) were infected with a baculovirus construct encoding flag-tagged human GST-Omega-2 (see Example 5) and seeded into individual 10 cm dishes. For comparison, SF9 cells also were infected with a baculovirus construct encoding IKK[…] (I-κB kinase-γ/NF-κB essential modulator (NEMO)). After 48 hr of infection, media were removed and replaced with fresh medium (6 ml) containing from 0.01 to 10 μM of [^14C]Compound 2. Cells were incubated with the radiolabeled diarylsulfonylurea for 60 min (at room temperature) and then collected by centrifugation and washed to remove unbound test agent. Each cell pellet then was suspended in 5 ml of PBS and divided into 2 fractions. Cells within one of these fractions (⅕ of the total) were collected by centrifugation and suspended in 150 µl of SDS/PAGE disaggregation buffer. Cells within the other fraction (⅘ of the total) were collected by centrifugation, solubilized by detergent extraction, and recombinant GST-Omega-2 was recovered by immunoprecipitation with the anti-Flag M2 antibody. Both the total cell lysates and the immunoprecipitates were fractionated by SDS/PAGE and the dried gels were analyzed by autoradiography.

[4] = biological target: T2, flag-tagged murine GST-Omega-2 (Mus musculus, UniProt Q8K2Q2); experiment: Labeling of murine GST-Omega-2 by [14C]Compound 2 in infected SF9 cells, SDS/PAGE autoradiography; assay type: binding; details: 60 min
T2 construct: expressed in transfected cells; host or cells: SF9 insect cells, baculovirus infection (pFASTBAC-flag shuttle vector)
T2 sequence (Q8K2Q2 1-248): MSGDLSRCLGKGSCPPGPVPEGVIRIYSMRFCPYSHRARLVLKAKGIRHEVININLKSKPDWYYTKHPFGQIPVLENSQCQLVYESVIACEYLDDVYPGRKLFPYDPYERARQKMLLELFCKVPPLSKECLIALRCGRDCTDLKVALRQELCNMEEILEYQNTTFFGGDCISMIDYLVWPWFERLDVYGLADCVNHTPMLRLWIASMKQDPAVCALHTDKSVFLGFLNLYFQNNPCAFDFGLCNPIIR
Procedure: as §1, with “murine” for “human”, “(IkappaB kinase gamma).” for “(I-κB kinase-γ/NF-κB essential modulator (NEMO)).”, “μM” for “μM of”

[5] = 1 µM, room temperature, versus IKK-expressing control cells
[6] = 10 µM (highest test concentration), control and GST-Omega-2-expressing cells

- inhibition of incorporation of [14C]Compound 2 into GST-Omega-2 ([1]; 10 µM unlabeled compound): 90%
Structure (SMILES): O=C(Nc1c2c(cc3c1CCC3)CCC2)NS(=O)(=O)c1cc(C2CO2)ccc1F (centres unmarked) [Compound 2, 1-(1,2,3,5,6,7-Hexahydro-s-indacen-4-yl)-3-[2-fluoro-5-oxiranylbenzenesulfonyl]-urea]

- inhibition of incorporation of [14C]Compound 2 into GST-Omega-2 ([1]; 100 µM test compound): 63%
- inhibition of incorporation of [14C]Compound 2 into GST-Omega-2 ([1]; 200 µM test compound): 73%
- inhibition of incorporation of [14C]Compound 2 into GST-Omega-2 ([1]; 400 µM test compound): 84%
Structure (SMILES): CC(C)(O)c1coc(S(=O)(=O)NC(=O)Nc2c3c(cc4c2CCC4)CCC3)c1 [Compound 4, 1-(1,2,3,5,6,7-Hexahydro-s-indacen-4-yl)-3-[4-(1-hydroxy-1-methylethyl)-furan-2-sulfonyl]-urea]
- competition with binding of GST-Omega-2 to the diarylsulfonylurea affinity column [2]: competed with the specific binding of GST-Omega-2 to the diarylsulfonylurea affinity column

Structure (SMILES): O=C(Nc1c2c(cc3c1CCC3)CCC2)NS(=O)(=O)c1cc(C2CO2)ccc1F (centres unmarked) [[^14C]Compound 2]
- polypeptides labeled in infected cells [3, 5]: only the polypeptide migrating as GST-Omega-2 appeared labeled
- polypeptides labeled in infected cells [3, 6]: appeared to incorporate into several polypeptides
- incorporation of radioactivity into anti-flag immunoprecipitated GST-Omega-2 ([3]; 0.01 to 10 μM): dose-dependent increase in the incorporation of radioactivity into the immunoprecipitated protein
- polypeptides labeled in infected cells [4, 5]: only the polypeptide migrating as GST-Omega-2 appeared labeled
- polypeptides labeled in infected cells [4, 6]: appeared to incorporate into several polypeptides
- incorporation of radioactivity into anti-flag immunoprecipitated GST-Omega-2 ([4]; 0.01 to 10 μM): dose-dependent increase in the incorporation of radioactivity into the immunoprecipitated protein
